The values below come from PubChem BioAssay (NCI).

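All cell lines were grown in 96-well plates and treated with compound for 48 hours. Here, GI50 denotes the concentration required for 50% inhibition of growth. At the TGI there is no net growth.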

Among the test systems are CCRF-CEM leukemia; HCT-116 colon; HOP-62 NSCLC; HS 578T breast; MCF7 breast; OVCAR-3 ovarian; OVCAR-8 ovarian; SNB-75 CNS; UACC-62 melanoma; MDA-N.
Common to all, as to test: inhibition of tumour cell growth, NCI panel, 48 h

As for `O=C(Nc1ccccc1C(=O)O)C(=Cc1ccccc1O)NC(=O)c1ccccc1`, the TGI in the assay with CCRF-CEM leukemia, with HCT-116 colon, in the assay with HOP-62 NSCLC, in the assay on HS 578T breast, in the assay with MCF7 breast and with OVCAR-3 ovarian was above 100 µM throughout. In addition, the TGI with OVCAR-8 ovarian, with SNB-75 CNS and with UACC-62 melanoma was above 100 µM each time.

For H-KIFKKFKTIIKKVWRIFGRF-NH2, the GI50 is 2.53 µM in the assay on CCRF-CEM leukemia; 3.22 µM with HCT-116 colon; 3.04 µM in the assay on MCF7 breast; 2.14 µM with OVCAR-3 ovarian; 3.28 µM in the assay with OVCAR-8 ovarian; 2.5 µM with SNB-75 CNS. In addition, in the assay with UACC-62 melanoma, the GI50 is 2.03 µM. In addition, the TGI in the assay on CCRF-CEM leukemia was above 100 µM; with HCT-116 colon it was above 100 µM; in the assay with MCF7 breast, above 100 µM; in the assay on OVCAR-3 ovarian it was 5.01 µM; with OVCAR-8 ovarian, above 100 µM; with SNB-75 CNS it was 6.99 µM. This compound also showed a TGI in the assay with UACC-62 melanoma of 4.92 µM.

Take `COc1ccc(OC)c([N+](=O)[O-])c1-c1nc2sc(C)cn2c1/C=N/N=C(N)N`: the TGI is above 100 µM in the assay on CCRF-CEM leukemia; above 100 µM with HCT-116 colon; above 100 µM in the assay with HOP-62 NSCLC; 97.9 µM with HS 578T breast; above 100 µM in the assay with MCF7 breast; 85.6 µM in the assay with OVCAR-3 ovarian. The TGI is 76.8 µM with OVCAR-8 ovarian and 69.3 µM in the assay on UACC-62 melanoma.

Consider `CCOC(=O)N1c2c(c3ccccc3n2C(=O)OCC)C(=O)C(OC)N1C(=O)OCC` (stereo unspecified), for which the TGI in the assay on CCRF-CEM leukemia is above 100 µM; in the assay with HCT-116 colon, 86.9 µM; with HOP-62 NSCLC, above 100 µM; with HS 578T breast, 73.3 µM; in the assay with MCF7 breast, above 100 µM; with MDA-N, above 100 µM. In addition, the TGI in the assay on OVCAR-3 ovarian, with OVCAR-8 ovarian and in the assay on UACC-62 melanoma was above 100 µM each time.

As for `CN(C)CC(C)(C)C(=O)/C=C/c1ccccc1`, the TGI in the assay on CCRF-CEM leukemia was 23.2 µM; with HCT-116 colon, 27.4 µM; in the assay with HOP-62 NSCLC, 96.3 µM; with OVCAR-3 ovarian, 40.5 µM; in the assay with OVCAR-8 ovarian, above 100 µM; in the assay on SNB-75 CNS, 37.7 µM. For the same compound, the TGI with UACC-62 melanoma came to 26.5 µM.

For the compound `S=C1NNC(=S)NN1`, the TGI in the assay with CCRF-CEM leukemia, in the assay with HCT-116 colon, with HOP-62 NSCLC, in the assay on HS 578T breast, in the assay on MCF7 breast and in the assay with MDA-N was above 1 µM in each case. The TGI in the assay with OVCAR-3 ovarian, in the assay with OVCAR-8 ovarian and with UACC-62 melanoma was above 1 µM throughout.

Regarding `O=C(CSCC(=O)N/N=C\c1cccc(Br)c1)N/N=C\c1cccc(Br)c1`, the TGI with HCT-116 colon is 27.9 µM; in the assay on HOP-62 NSCLC, 31.7 µM; in the assay with HS 578T breast, 35.7 µM; in the assay with MCF7 breast, above 100 µM; in the assay with OVCAR-3 ovarian, 26.6 µM; in the assay with OVCAR-8 ovarian, 35.4 µM. The values for the TGI in the assay on SNB-75 CNS and in the assay with UACC-62 melanoma were 39.4 µM and 29.4 µM, respectively.

Turning to `NS(=O)(=O)c1ccc(NS(=O)(=O)c2ccc(NC(=O)N(c3ccccc3)c3ccccc3)cc2)cc1`, the TGI in the assay with CCRF-CEM leukemia, with HCT-116 colon, in the assay on HOP-62 NSCLC, with HS 578T breast, with MCF7 breast and with MDA-N was above 100 µM throughout. For the same compound, the results for the TGI in the assay on OVCAR-3 ovarian, in the assay with OVCAR-8 ovarian and in the assay with UACC-62 melanoma were 50.2 µM, above 100 µM and above 100 µM, respectively.

With `COc1ccc(-c2nc3ncccn3c2-c2ccc(S(C)(=O)=O)cc2)cc1`, the TGI in the assay on CCRF-CEM leukemia was above 100 µM; in the assay on HCT-116 colon, above 100 µM; with HOP-62 NSCLC, above 100 µM; in the assay with HS 578T breast it was above 100 µM; with MCF7 breast, 81.8 µM; in the assay with OVCAR-3 ovarian, above 100 µM. In addition, the TGI in the assay with OVCAR-8 ovarian, with SNB-75 CNS and in the assay on UACC-62 melanoma was above 100 µM each time.

`CC1[C@@H]2C[C@@H]3O[C@@]34[C@H]3CCC5Cc6nc7c(nc6C[C@@]5(C)C3(O)CC(=O)[C@@]24CO[C@]12OC(C)(C)CC2O)CC1CC[C@@H]2C3=C[C@H]4O[C@@]5(O[C@@](C)(CO)C[C@@H]5O)C(C)[C@@]4(O)[C@]3(C)[C@@H](O)CC2[C@]1(C)C7` (stereo partly specified): the TGI in the assay on CCRF-CEM leukemia is 0.0413 µM; in the assay with HCT-116 colon, above 3.52 µM; with HOP-62 NSCLC, 0.0729 µM; in the assay with MCF7 breast, above 3.52 µM; with OVCAR-3 ovarian, above 3.52 µM; in the assay with OVCAR-8 ovarian it was above 3.52 µM. Besides, the TGI was 0.028 µM in the assay with SNB-75 CNS and 0.104 µM in the assay with UACC-62 melanoma.

As to `Nc1nn2cc(-c3ccccc3)[n+](CC(=O)c3ccccc3)c2s1`, the TGI is 54.6 µM in the assay on CCRF-CEM leukemia; 30.3 µM in the assay on HCT-116 colon; 87.5 µM in the assay on HOP-62 NSCLC; 43.6 µM in the assay on HS 578T breast; 24.6 µM in the assay with MCF7 breast; above 100 µM in the assay with MDA-N. Further, the TGI is 71.3 µM in the assay with OVCAR-3 ovarian, above 100 µM in the assay on OVCAR-8 ovarian and above 100 µM in the assay with UACC-62 melanoma.

As for `[O-][n+]1cc(SCc2ccccc2)ncc1SCc1ccccc1`, the TGI in the assay with CCRF-CEM leukemia, in the assay with HCT-116 colon, in the assay with HOP-62 NSCLC, in the assay on HS 578T breast, in the assay on MCF7 breast and in the assay with OVCAR-3 ovarian was above 10 µM in each case. The TGI in the assay with OVCAR-8 ovarian, in the assay with SNB-75 CNS and with UACC-62 melanoma was above 10 µM in each case.

For `CC(C)c1cc(C(C)C)c(B(c2ccccc2)c2ccccc2)c(C(C)C)c1Br`, the TGI in the assay on CCRF-CEM leukemia, in the assay with HCT-116 colon, in the assay on HOP-62 NSCLC, with HS 578T breast, in the assay with MCF7 breast and in the assay on MDA-N was above 100 µM throughout. Besides, the TGI in the assay with OVCAR-3 ovarian, in the assay on OVCAR-8 ovarian and in the assay on UACC-62 melanoma was above 100 µM in each case.

As for `C[S+](C)C1(c2ccccc2)C(=O)c2ccccc2C1=O`, the TGI is above 85.8 µM with CCRF-CEM leukemia; above 100 µM in the assay with HCT-116 colon; above 100 µM with HOP-62 NSCLC; 60.8 µM with HS 578T breast; above 100 µM in the assay with MCF7 breast; above 100 µM with OVCAR-3 ovarian. Moreover, the TGI in the assay on OVCAR-8 ovarian was above 100 µM; with SNB-75 CNS it was above 89.2 µM; in the assay with UACC-62 melanoma it was above 62.7 µM.
